Assay results published in PMC11817140, “Characterization of Novel Plantaricin-Derived Antiviral Peptides Against Flaviviruses” (International Journal of Molecular Sciences, 2025).
“And” between values parts separate entries of the source, which are not always exact repeats. Equal values may be shown once.

tested on: West Nile virus Kunjin strain (KUNV); assay: Plaque reduction assay in Vero cells after pre-incubating virus with peptide; type: cell-based; details: 10 µM peptide, KUNV 1 × 10^5 PFU exposed in DMEM for 1 h at room temperature, then Vero cells 1 h, overlay, 3 days, mean with SD of three independent experiments
Protocol: The antiviral activity of the synthesized peptides was evaluated using plaque reduction assays in Vero cells against West Nile virus Kunjin strain (KUNV, accession number AY274504). Vero cells (Vero E6, ATCC, CRL-1586, Manassas, VA, USA) were maintained in Dulbecco’s Modified Eagle Medium (DMEM, Thermo Fisher Scientific, Gibco, Göteborg, Sweden), supplemented with 10% fetal bovine serum (FBS, Thermo Fisher Scientific, Gibco, Göteborg, Sweden) and antibiotics (PEST, Thermo Fisher Scientific, Gibco, Göteborg, Sweden). For the antiviral assays, Vero cells were seeded in 24-well plates and allowed to reach confluency. The virus suspension (1 × 10^5 PFU) was pre-incubated with the peptides at 10 µM concentration or lower (in the combination experiment) for 1 h at room temperature. The peptide–virus mixtures were then added to the Vero cell monolayers and incubated for 1 h at 37 °C. Following incubation, the inoculum was removed, and cells were overlaid with Avicel 2.4% overlay media (FMC, Philadelphia, PA, USA). Plates were incubated for 3 days at 37 °C in a CO2 incubator. Post-incubation, cells were fixed with 100% methanol and stained with 1% crystal violet to visualize and count viral plaques. The reduction in plaque numbers compared to control wells (virus without peptide) was used to quantify antiviral activity.

Point of comparison: “SVPTSVYTLGIKILWSAYKHRKTIEKSFNKGFYH [PLNC8 β, full-length β peptide (34 residues) of two-peptide bacteriocin plantaricin NC8 αβ, reference compound]”, “KUNV (% Reduction)” value 70 ± 12%. Against it:
- α1-22: truncated peptide derived from PLNC8 α (DLTTKLWSSWGYYLGKKARWNL) — lower, 28 ± 2%
- SVPTSVYTLGIKILWSARKFGKVIEKSFNKGFYH [β16, modified peptide derived from PLNC8 β] — within error, 84 ± 8%
- VFHAYSARGVRNNYKSAVGPADWVISAVRGFIHG [PlnF, full-length peptide F of two-peptide plantaricin EF, reference compound] — lower, 24 ± 6%
- α23-29: truncated peptide derived from PLNC8 α (KHPYVQF) — lower, 10 ± 4%
- β7-13: truncated peptide derived from PLNC8 β (YTLGIKI) — lower, 8 ± 4%
- β1-13: truncated peptide derived from PLNC8 β (SVPTSVYTLGIKI) — lower, 5 ± 7%
- β14-34: truncated peptide derived from PLNC8 β (LWSAYKHRKTIEKSFNKGFYH) — lower, 5 ± 0.2%
- β7-20: truncated peptide derived from PLNC8 β (YTLGIKILWSAYKH) — within error, 65 ± 20%
- FNRGGYNFGKSVRHVVDAIGSVAGIRGILKSIR [PlnE, full-length peptide E of two-peptide plantaricin EF, reference compound] — lower, 24 ± 6%
- β21-34: truncated peptide derived from PLNC8 β (RKTIEKSFNKGFYH) — lower, 0 ± 0%
- SVPTSVYTLGQKILRSARKFGKTIEKSFNKGFYH [β13, modified peptide derived from PLNC8 β] — lower, 8 ± 11%
- β14-20: truncated peptide derived from PLNC8 β (LWSAYKH) — lower, 3 ± 4%
- GAWKNFWSSLRKGFYDGEAGRAIRR [PlnJ, full-length peptide J of two-peptide plantaricin JK, reference compound] — lower, 30 ± 8%
- SVPTSVYTLGQKILRSARKFGKDIEKSFNKGFYH [β14, modified peptide derived from PLNC8 β] — lower, 6 ± 8%
- β1-6: truncated peptide derived from PLNC8 β (SVPTSV) — lower, 21 ± 22%
- RRSRKNGIGYAIGYAFGAVERAVLGGSRDYNK [PlnK, full-length peptide K of two-peptide plantaricin JK, reference compound] — lower, 18 ± 9%
- α16-22: truncated peptide derived from PLNC8 α (KKARWNL) — lower, 3 ± 6%
- α1-15: truncated peptide derived from PLNC8 α (DLTTKLWSSWGYYLG) — higher, 91 ± 2%
- β7-34: truncated peptide derived from PLNC8 β (YTLGIKILWSAYKHRKTIEKSFNKGFYH) — within error, 52 ± 27%
- α9-15: truncated peptide derived from PLNC8 α (SWGYYLG) — lower, 16 ± 7%
- α1-8: truncated peptide derived from PLNC8 α (DLTTKLWS) — lower, 20 ± 18%
- β28-34: truncated peptide derived from PLNC8 β (FNKGFYH) — lower, 11 ± 15%
- α16-29: truncated peptide derived from PLNC8 α (KKARWNLKHPYVQF) — lower, 2 ± 0%
- β4-17: truncated peptide derived from PLNC8 β (TSVYTLGIKILWSA) — within error, 56 ± 32%
- β10-17: truncated peptide derived from PLNC8 β (GIKILWSA) — lower, 0 ± 0%
- α9-22: truncated peptide derived from PLNC8 α (SWGYYLGKKARWNL) — lower, 7 ± 7%
- SVPTSVYTLGIKILRSARKFGKVIEKSFNKGFYH [β15, modified peptide derived from PLNC8 β] — lower, 9 ± 13%
- SVPTSVYLLGIKILWSARKFGKVIEKSFNKGFYH [β17, modified peptide derived from PLNC8 β] — lower, 14 ± 12%
- α9-29: truncated peptide derived from PLNC8 α (SWGYYLGKKARWNLKHPYVQF) — lower, 10 ± 6%
- β1-20: truncated peptide derived from PLNC8 β (SVPTSVYTLGIKILWSAYKH) — higher, 92 ± 4%
- SVPTSVYLLGIKILWKARKFGKVIEKSFNKGFYH [β18, modified peptide derived from PLNC8 β] — lower, 12 ± 1%
- AYSLQMGATAIKQVKKLFKKWGW [PlnA, full-length plantaricin A, peptide pheromone of Lactobacillus plantarum C11, reference compound] — lower, 27 ± 9%

For “DLTTKLWSSWGYYLGKKARWNLKHPYVQF [PLNC8 α, full-length α peptide (29 amino acids) of two-peptide bacteriocin plantaricin NC8 αβ, reference compound]”, the “KUNV (% Reduction)” value was ~ 35% and 35 ± 2%.

same assay, conditions: 10 µM peptide, KUNV 1 × 10^5 PFU exposed in DMEM for 1 h at room temperature, then Vero cells 1 h, overlay, 3 days, mean with SD of three independent experiments, listed as PLNC8 α1-15

For “α1-15: truncated peptide derived from PLNC8 α (DLTTKLWSSWGYYLG)”, the “KUNV (% Reduction)” value was “over 90%”.

same assay, conditions: 10 µM peptide, KUNV 1 × 10^5 PFU exposed in DMEM for 1 h at room temperature, then Vero cells 1 h, overlay, 3 days, mean with SD of three independent experiments, listed as PLNC8 β1-20

In the case of “β1-20: truncated peptide derived from PLNC8 β (SVPTSVYTLGIKILWSAYKH)”, the “KUNV (% Reduction)” value is reported as “over 90%”.
